The record followed here is publication PMC9143577, “Cationic Geminoid Peptide Amphiphiles Inhibit DENV2 Protease, Furin, and Viral Replication” (Molecules, 2022).

This assay addresses DENV2 protease (Dengue virus type 2, UniProt P14340). The experiment in a line: biochemical. On the procedure: IC50 values were determined in CDD Vault using the Levenberg–Marquardt algorithm for fitting a Hill equation to dose-response data.
Enzyme expression and purification
DENV2 Protease Preparation. The enzyme was expressed and purified as previously described (ref. S1). Briefly, the vector with CF40 fused to NS3pro was used for high- level inducible expression of recombinant enzyme, tagged on the N-t erminus with hexahistidine. E. coli strain SG13009 cells were transformed with the expression plasmid and grown in kanamycin at 37 °C until the absorb ance at 600 nm r each ed a v alue of 0.6. Cells were induced for expression by the addition of isopropyl-β-D-thiogalactopyranose to a final concentration of 1 mM and incubated for additional 3 h at 30 °C. The cells were harvested by centrifugation, resuspended in 1 mL of a lysis buffer, subjected to sonication, and centrifuged again. The supernatant was collected and passed through a 2- mL column of nitrilotriacetic acid-agarose (Qiagen) loaded with Ni2+. The column was extensively washed with buffer containing […], and the protein was then eluted from then column in buffer containing 100 mM imidazole.
Elution samples were analyzed by 15% SDS-PAGE and the substrate Z-RR- MCA was used to distinguish the activity of DENV2 protease from that of contaminating bacterial […]
proteases. […]

Chain of DENV2 protease (P14340 1476-1653): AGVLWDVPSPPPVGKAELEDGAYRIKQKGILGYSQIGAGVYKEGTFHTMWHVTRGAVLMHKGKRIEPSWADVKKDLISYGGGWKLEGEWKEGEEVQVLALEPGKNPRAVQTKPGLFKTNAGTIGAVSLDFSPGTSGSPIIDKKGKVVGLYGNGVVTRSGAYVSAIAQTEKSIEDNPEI
Chain of DENV2 protease (P14340 1398-1437): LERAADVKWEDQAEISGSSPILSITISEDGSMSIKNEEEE

As usually defined, the IC50 is the concentration that inhibits the measured activity by half. As for `CCCCCCCCCCCCCCCCNC(=O)[C@H](CCCCN)NC(=O)[C@H](CCCCN)NC(=O)CCCCCCCCCCCCCCC` [Compound 1], the IC50 worked out at 4.25 ± 0.27 µM.
